US20230149560A1, “LIPID COMPOSITIONS FOR DELIVERY OF STING AGONIST COMPOUNDS AND USES THEREOF” (priority 2020, published 2023)

What was measured:
MC38 tumors = assay: MC38 flank tumor model, single intravenous dose; format: in vivo, mouse; conditions: for tumor burden: MC38, single iv dose day 7: LND 1 5 nmol CDN, parent CDN 5 or 100 nmol, ADU-S100 100 nmol
Description: Specifically, a single intravenous injection of LND 1 prepared as described in Example 3 was compared to intravenous injection of parent CDN for effects on tumor growth in a mouse model of colon adenocarcinoma. Tumors were established in 8-10 week old C57BL/6 mice by inoculating the right flank with a subcutaneous injection of 5x10^5 MC38 cells suspended in PBS. On day 7 post-inoculation, the mice were administered an intravenous injection of either parent CDN or LND-formulated CDN at a dose of 5 nmol CDN. Tumor area was measured on days 7, 10, and 12 and compared to untreated mice that received an intratumoral injection of PBS on day 7. The mice were then sacrificed on day 13, and excised tumors were weighed.
Mice were inoculated with MC38 tumors as described above. On day 7 post tumor inoculation, mice were administered a single intravenous injection of parent CDN at a dose of 5 nmol (n=5) or 100 nmol (n=10), ADU-S100 at a dose of 100 nmol (n=10), or LND 1 at a dose of 5 nmol CDN (n=20). Following administration, tumor growth and animal survival was monitored and compared to untreated mice that received an injection of PBS.
It was further investigated whether intravenous administration of LND-formulated CDN was effective in treating well-established MC38 tumors. Specifically, MC38 tumors were allowed to grow for 10 days post-inoculation (mean size of about 45 mm^2), whereupon a single intravenous dose of LND 1 was administered (5 nmol CDN). Control mice were administered PBS only. […] Though mice administered LND-formulated CDN experience some weight loss (about 10% body weight), they recovered full body weight within about 5 days of administration (data not shown).
Systemic administration of LND or liposome particles comprising CDN-PEG-Lipid was compared in the MC38 tumor model. […] The effect on tumor area and survival was evaluated and compared to untreated mice receiving an injection of PBS alone. Tumor size was measured by area (longest dimension x perpendicular dimension) and the mice were euthanized when the tumor area exceeded 150 mm^2 or tumor ulceration became severe.

4T1-Luc tumor = assay: Orthotopic 4T1 tumor model, single intravenous dose; format: in vivo, mouse; conditions: 4T1 orthotopic, single iv day 7: LND 1 10 nmol CDN; parent CDN 200 nmol
Description: To evaluate therapeutic efficacy in the aggressive 4T-1 orthotopic tumors, BALB/c mice were inoculated with 5 x 10^5 4T1-Luc tumor cells that were injected into the fourth mammary fat-pad. At 7 days post tumor inoculation, mice were administered CDN formulated as LND 1 at a dose of 10 nmol CDN or parent CDN at a dose of 200 nmol CDN per mouse by intravenous injection. Control mice were administered PBS only.

Row | SMILES | tumor area and mass (MC38 tumors; MC38, single iv 5 nmol CDN on day 7, area days 7-12, weight day 13, vs untreated) | tumor burden (MC38 tumors) | tumor growth and survival (4T1-Luc tumor)
1 | CCN(CC)CC.Nc1nc2c(ncn2[C@@H]2O[C@@H]3COP(=O)(S)O[C@H]4[C@H]5OC[C@]4(COP(=O)(O)O[C@@H]2[C@@H]3O)O[C@H]5n2cnc3c(N)ncnc32)c(=O)[nH]1 (stereo partly shown) [parent CDN] | no effect | no reduction of tumor burden | no impact on tumor growth or overall survival
2 | Nc1ncnc2c1ncn2[C@@H]1O[C@@H]2COP(O)(=S)O[C@@H]3C(O)[C@@H](COP(O)(=S)O[C@H]2[C@H]1O)O[C@H]3n1cnc2c(N)ncnc21 (stereo partly shown) [ADU-S100, dithio-(Rp, Rp)-[cyclic[A(2′,5′)pA(3′,5′)p]], reference compound] |  | no reduction of tumor burden | 
